Experimental data: publication PMC4183655, “Discovery and Optimization of Small-Molecule Ligands for the CBP/p300 Bromodomains” (Journal of the American Chemical Society, 2014)
Where two headings read alike, the source gives them in different places.

Legend:
[1] = target: CBP BRD; details: cited from earlier work
[2] = tested on: p53–CBP interaction; details: at 50 μM; cited from earlier work
[3] = tested on: p53-induced p21 activation; details: luciferase reporter-gene assay; read-out: Inhibition of p53-induced p21 activation IC50; cited from earlier work
[4] = target: T1, CBP (Homo sapiens, UniProt Q92793); experiment: Peptide displacement AlphaScreen; format: binding
T1 sequence (Q92793 1085-1192 limits assumed): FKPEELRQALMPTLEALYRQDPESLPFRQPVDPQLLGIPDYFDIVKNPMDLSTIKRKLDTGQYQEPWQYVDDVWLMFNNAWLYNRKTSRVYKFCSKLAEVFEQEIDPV

[5] = target: T2, BRD4(1) (Homo sapiens, UniProt O60885); experiment: DSF (ΔTm) thermal stability assay; format: binding; details: compound concentration 10 μM, mean ± SEM (number of measurements)
[6] = target: T2, BRD4(1); experiment: Peptide displacement AlphaScreen; format: binding
[7] = target: T3, BRD9 (Homo sapiens, UniProt Q9H8M2); experiment: Peptide displacement AlphaScreen; format: binding
T3 construct: using recombinant BRDs as surrogates of full-length protein
T3 sequence (Q9H8M2 136-240 limits assumed): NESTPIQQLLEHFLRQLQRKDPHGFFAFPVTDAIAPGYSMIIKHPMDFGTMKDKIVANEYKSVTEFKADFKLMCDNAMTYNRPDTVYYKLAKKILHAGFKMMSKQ

[8] = target: T3, BRD9; experiment: DSF (ΔTm) selectivity panel; format: binding; details: compound 10 µM
[9] = target: T1, CBP; experiment: DSF (ΔTm) thermal stability assay; format: binding; details: compound concentration 10 μM, mean ± SEM (number of measurements)
[10] = target: T4, p300 (Homo sapiens, UniProt Q09472); experiment: Isothermal titration calorimetry (ITC)
T4 sequence (Q09472 1049-1156 limits assumed): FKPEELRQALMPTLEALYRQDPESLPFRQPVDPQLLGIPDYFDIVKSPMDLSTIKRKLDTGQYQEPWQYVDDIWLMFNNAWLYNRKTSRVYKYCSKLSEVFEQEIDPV

[11] = target: T1, CBP; experiment: Isothermal titration calorimetry (ITC)
[12] = target: T5, CECR2 (Homo sapiens, UniProt Q9BXF3); experiment: DSF (ΔTm) selectivity panel; format: binding; details: compound 10 µM
T5 construct: using recombinant BRDs as surrogates of full-length protein
T5 sequence (Q9BXF3 434-538 limits assumed): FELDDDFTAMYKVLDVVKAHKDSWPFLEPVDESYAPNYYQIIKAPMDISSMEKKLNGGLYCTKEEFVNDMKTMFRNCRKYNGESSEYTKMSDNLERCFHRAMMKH

[13] = target: T5, CECR2; experiment: Peptide displacement AlphaScreen; format: binding
[14] = target: T4, p300; experiment: DSF (ΔTm) thermal stability assay; format: binding; details: compound 10 µM
[15] = target: T4, p300; experiment: Peptide displacement AlphaScreen; format: binding
[16] = target: T2, BRD4(1); experiment: Isothermal titration calorimetry (ITC)
[17] = target: T6, ATAD2 (Homo sapiens, UniProt Q6PL18); experiment: Peptide displacement AlphaScreen; format: binding
T6 construct: using recombinant BRDs as surrogates of full-length protein
T6 sequence (Q6PL18 980-1092 limits assumed): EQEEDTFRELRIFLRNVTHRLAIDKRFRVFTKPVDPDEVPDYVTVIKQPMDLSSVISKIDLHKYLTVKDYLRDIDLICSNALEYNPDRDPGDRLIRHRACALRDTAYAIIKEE

[18] = target: T6, ATAD2; experiment: DSF (ΔTm) thermal stability assay; format: binding; details: compound 10 µM
[19] = tested on: GFP-tagged 3 × CBP BRD construct; experiment: Fluorescence recovery after photo-bleaching (FRAP) assay; details: HeLa cells, SAHA-treated, compound 0.1 μM
[20] = target: T7, BAZ2A (Homo sapiens, UniProt Q9UIF9); experiment: Peptide displacement AlphaScreen; format: binding
T7 construct: using recombinant BRDs as surrogates of full-length protein
T7 sequence (Q9UIF9 1793-1897 limits assumed): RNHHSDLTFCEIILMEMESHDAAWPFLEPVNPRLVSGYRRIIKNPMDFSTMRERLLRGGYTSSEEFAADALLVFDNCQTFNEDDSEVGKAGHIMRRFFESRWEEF

[21] = target: T7, BAZ2A; experiment: DSF (ΔTm) thermal stability assay; format: binding; details: compound 10 µM
[22] = target: T8, alpha 2A (h) (Homo sapiens, UniProt P08913); experiment: Cerep profiling, antagonist radioligand; format: binding
T8 construct: CEREP (BioPrint Full Panel, contract assay)
T8 sequence (P08913 whole entry): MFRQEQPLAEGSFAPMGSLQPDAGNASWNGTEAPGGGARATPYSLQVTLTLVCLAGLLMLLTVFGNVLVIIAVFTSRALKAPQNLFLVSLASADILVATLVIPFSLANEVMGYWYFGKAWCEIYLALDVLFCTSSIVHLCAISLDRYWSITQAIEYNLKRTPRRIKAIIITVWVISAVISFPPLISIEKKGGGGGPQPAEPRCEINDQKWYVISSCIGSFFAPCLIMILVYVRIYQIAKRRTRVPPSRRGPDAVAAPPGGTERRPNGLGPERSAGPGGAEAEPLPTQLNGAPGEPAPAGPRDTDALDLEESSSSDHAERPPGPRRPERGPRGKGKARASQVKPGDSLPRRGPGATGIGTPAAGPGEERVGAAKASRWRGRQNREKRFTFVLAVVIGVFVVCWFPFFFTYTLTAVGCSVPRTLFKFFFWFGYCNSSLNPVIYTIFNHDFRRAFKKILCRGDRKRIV

[23] = Human liver microsome (HLM) stability assay; format: in vitro ADME; details: microsomes, 1 h
[24] = target: PAF (h) (Homo sapiens, UniProt P25105); experiment: Cerep profiling, agonist radioligand
PAF (h), sequence (P25105 whole entry): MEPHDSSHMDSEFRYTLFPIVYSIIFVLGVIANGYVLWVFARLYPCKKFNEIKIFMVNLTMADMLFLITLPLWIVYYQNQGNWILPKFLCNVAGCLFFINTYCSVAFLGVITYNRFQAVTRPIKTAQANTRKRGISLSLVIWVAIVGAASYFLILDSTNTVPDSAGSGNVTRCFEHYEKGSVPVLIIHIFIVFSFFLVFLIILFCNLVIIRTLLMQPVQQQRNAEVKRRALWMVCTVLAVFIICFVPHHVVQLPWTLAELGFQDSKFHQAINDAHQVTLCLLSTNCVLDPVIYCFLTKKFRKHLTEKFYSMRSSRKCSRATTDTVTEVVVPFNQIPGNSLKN

[25] = target: T9, PDE5 (h) (non-selective) (Homo sapiens, UniProt O76074); experiment: Cerep profiling; format: biochemical
T9 construct: CEREP (BioPrint Full Panel, contract assay)

[26] = Cytotoxicity assay; details: human, U2OS osteosarcoma cells
[27] = tested on: p53-driven luciferase activity in RKO cells; experiment: p53 luciferase reporter assay; format: cell-based, human; details: compound 24 h then doxorubicin 0.3 μM 16 h, read-out: Inhibition of doxorubicin-induced p53-driven luciferase activity IC50
Procedure: Refinement was carried out in
refinement cycles. […] The
Cell culture and reagents
Fluorescence Recovery After Photobleaching (FRAP) Assay
In brief RKO cells were transfected with
well plate format using Fugene HD (Roche).
Compounds were dissolved in dimethyl sulfoxide
5 ul of compound solution was added
mixing plates returned to the incubator.

[28] = target: T10, alpha 2C (h) (Homo sapiens, UniProt P18825); experiment: Cerep profiling, antagonist radioligand; format: binding
T10 construct: CEREP (BioPrint Full Panel, contract assay)
T10 sequence (P18825 whole entry): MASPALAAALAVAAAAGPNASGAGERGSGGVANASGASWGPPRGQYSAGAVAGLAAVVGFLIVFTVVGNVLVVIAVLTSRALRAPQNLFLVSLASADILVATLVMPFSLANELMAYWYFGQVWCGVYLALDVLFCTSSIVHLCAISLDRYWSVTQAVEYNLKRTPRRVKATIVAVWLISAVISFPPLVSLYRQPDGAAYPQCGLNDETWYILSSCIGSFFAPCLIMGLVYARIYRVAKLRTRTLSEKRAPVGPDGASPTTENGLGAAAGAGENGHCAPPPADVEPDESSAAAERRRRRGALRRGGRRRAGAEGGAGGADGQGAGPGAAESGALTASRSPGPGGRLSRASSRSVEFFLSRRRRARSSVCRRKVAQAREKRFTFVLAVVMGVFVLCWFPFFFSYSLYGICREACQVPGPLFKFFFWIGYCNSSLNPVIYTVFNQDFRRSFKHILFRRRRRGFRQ

[29] = target: T11, BRD3(1) (Homo sapiens, UniProt Q15059); experiment: DSF (ΔTm) selectivity panel; format: binding; details: compound 10 µM
T11 construct: using recombinant BRDs as surrogates of full-length protein
T11 sequence (Q15059 34-140 limits assumed): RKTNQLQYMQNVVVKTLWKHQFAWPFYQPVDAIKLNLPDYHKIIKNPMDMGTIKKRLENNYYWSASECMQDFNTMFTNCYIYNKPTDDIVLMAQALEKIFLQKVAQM

[30] = target: T12, BRD2(1) (Homo sapiens, UniProt P25440); experiment: DSF (ΔTm) selectivity panel; format: binding; details: compound 10 µM
T12 construct: using recombinant BRDs as surrogates of full-length protein
T12 sequence (P25440 74-180 limits assumed): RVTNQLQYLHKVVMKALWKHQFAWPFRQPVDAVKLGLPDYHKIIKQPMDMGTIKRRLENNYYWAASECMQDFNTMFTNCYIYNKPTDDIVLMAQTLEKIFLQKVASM

**Q.** For CC(=O)n1c2c(c3ccccc31)CCCC2=O [Compound 1], which Kd [1] is on record?
**A.** The Kd was 19.6 µM.

**Q.** And the “Effect on the p53–CBP interaction in a competition assay” value [2]?
**A.** Its value is “block”.

**Q.** With Cc1cc(/N=N/c2cc(S(=O)(=O)O)c(C)cc2C)c(N)cc1O [Compound 2] as the molecule, how does the IC50 [3] read?
**A.** Its IC50 is 5 µM.

**Q.** Which IC50 ([4]; read-out: AlphaScreen IC50 CBP) does the source give for Cc1noc(C)c1-c1ccc2c(c1)nc(CCc1ccccc1)n2CCN1CCCC1 [Compound 15] here?
**A.** Its IC50 is 840 nM.

**Q.** And the ΔTm at 10 µM [5]?
**A.** Its ΔTm at 10 µM is 2.7 °C.

**Q.** What about the IC50 [6] of the same molecule?
**A.** Its IC50 is 9.1 µM.

**Q.** And the IC50 [7]?
**A.** Its IC50 is 100 µM.

**Q.** What about the ΔTm at 10 µM [8] of the same molecule?
**A.** Its ΔTm at 10 µM is 1.5 °C.

**Q.** And the ΔTm at 10 µM [9]?
**A.** Its ΔTm at 10 µM is 5.4 °C.

**Q.** Which “ITC N (molar binding ratio of the ligand-protein interaction), p300” value [10] does the source give for Cc1noc(C)c1-c1ccc2c(c1)nc(CCc1ccccc1)n2CCN1CCCCC1 [Compound 16] here?
**A.** Its value is 1.00 ± 0.0028.

**Q.** And the “ITC ∆G, p300” value [10]?
**A.** Its value is -8.60 kcal/mol.

**Q.** What about the “ITC ∆H, p300” value [10] of the same molecule?
**A.** Its value is -6.09 ± 0.0245 kcal/mol.

**Q.** And the Kd [10]?
**A.** Its Kd is 347 nM.

**Q.** And the “ITC 9T∆S, p300” value ([10]; At T = 298.15 K)?
**A.** The value was -2.51 kcal/mol.

**Q.** What about the IC50 ([4]; read-out: AlphaScreen IC50 CBP) of the same molecule?
**A.** Its IC50 is 180 nM.

**Q.** And the “ITC N (molar binding ratio of the ligand-protein interaction), CBP” value [11]?
**A.** The value was 1.00 ± 0.00223.

**Q.** And the “ITC ∆G, CBP” value [11]?
**A.** Its value is -8.66 kcal/mol.

**Q.** What about the “ITC ∆H, CBP” value [11] of the same molecule?
**A.** The value was -5.76 ± 0.0184 kcal/mol.

**Q.** What about the “ITC 9T∆S, CBP” value ([11]; At T = 298.15 K) of the same molecule?
**A.** Its value is -2.90 kcal/mol.

**Q.** And the Kd ([11]; ITC Ka, CBP)?
**A.** Its Kd is 323 nM.

**Q.** And the ΔTm at 10 µM [5]?
**A.** Its ΔTm at 10 µM is 2.7 °C.

**Q.** And the IC50 [6]?
**A.** Its IC50 is 2.4 µM.

**Q.** And the ΔTm at 10 µM [12]?
**A.** The ΔTm at 10 µM was 1 °C.

**Q.** What about the IC50 [7] of the same molecule?
**A.** The IC50 was over 25 µM.

**Q.** What about the IC50 [13] of the same molecule?
**A.** Its IC50 is 12 µM.

**Q.** What about the ΔTm at 10 µM [14] of the same molecule?
**A.** Its ΔTm at 10 µM is 7.9 °C.

**Q.** What about the IC50 [15] of the same molecule?
**A.** The IC50 was 140 nM.

**Q.** What about the ΔTm at 10 µM [9] of the same molecule?
**A.** Its ΔTm at 10 µM is 6.5 °C.

**Q.** And the “ITC N (molar binding ratio of the ligand-protein interaction), BRD4(1)” value [16]?
**A.** The value was 1.10 ± 0.005.

**Q.** What about the “ITC ∆G, BRD4(1)” value [16] of the same molecule?
**A.** The value was -8.01 kcal/mol.

**Q.** And the “ITC ∆H, BRD4(1)” value [16]?
**A.** Its value is -5.86 ± 0.0338 kcal/mol.

**Q.** What about the “ITC 9T∆S, BRD4(1)” value ([16]; At T = 298.15 K) of the same molecule?
**A.** The value was -2.15 kcal/mol.

**Q.** And the Kd ([16]; ITC Ka, BRD4(1))?
**A.** The Kd was 952 nM.

**Q.** With Cc1noc(C)c1-c1ccc2c(c1)nc(CCc1ccccc1)n2CCN1CCOCC1 [Compound 17] as the molecule, how does the “Selectivity for p300 over BRD4(1)” value ([10]; from ITC Kd values) read?
**A.** The value was 2.7 fold.

**Q.** What about the IC50 ([4]; mean ± SEM (number of measurements), read-out: CBP AlphaScreen pIC50 (converted)) of the same molecule?
**A.** The IC50 was 158 nM.

**Q.** What about the IC50 ([4]; read-out: AlphaScreen IC50 CBP) of the same molecule?
**A.** The IC50 was 820 nM.

**Q.** What about the ΔTm at 10 µM [5] of the same molecule?
**A.** The ΔTm at 10 µM was 2.1 °C.

**Q.** What about the “DSF ΔTm BRD4(1)” value ([5]; 10 µM) of the same molecule?
**A.** Its value is 2.7 °C.

**Q.** And the IC50 [6]?
**A.** The IC50 was 9.8 µM.

**Q.** And the IC50 [17]?
**A.** Its IC50 is 42 µM.

**Q.** And the ΔTm at 10 µM [18]?
**A.** The ΔTm at 10 µM was 0.16 °C.

**Q.** What about the “FRAP half-time of fluorescence recovery (t1/2), GFP-tagged 3× CBP BRD” value [19] of the same molecule?
**A.** Its value is 0.66 s.

**Q.** What about the ΔTm at 10 µM [9] of the same molecule?
**A.** The ΔTm at 10 µM was 3.9 °C.

**Q.** And the “DSF ΔTm CBP” value ([9]; 10 µM)?
**A.** The value was 6.5 °C.

**Q.** What about the Kd ([16]; ITC Kd BRD4(1), 15 °C) of the same molecule?
**A.** The Kd was 950 ± 44 nM.

**Q.** And the “Selectivity for CBP over BRD4(1)” value ([16]; from ITC Kd values)?
**A.** Its value is 3.0 fold.

**Q.** For Cc1noc(C)c1-c1ccc2c(c1)nc(CCc1ccccc1)n2CCN1CCN(C)CC1 [Compound 18], which IC50 ([4]; read-out: AlphaScreen IC50 CBP) is on record?
**A.** Its IC50 is 2000 nM.

**Q.** And the ΔTm at 10 µM [5]?
**A.** Its ΔTm at 10 µM is 1.2 °C.

**Q.** What about the IC50 [6] of the same molecule?
**A.** Its IC50 is 4.1 µM.

**Q.** What about the IC50 [20] of the same molecule?
**A.** Its IC50 is 14 µM.

**Q.** And the IC50 [17]?
**A.** The IC50 was 19 µM.

**Q.** What about the ΔTm at 10 µM [18] of the same molecule?
**A.** Its ΔTm at 10 µM is 0.03 °C.

**Q.** And the ΔTm at 10 µM [21]?
**A.** Its ΔTm at 10 µM is -0.52 °C.

**Q.** What about the ΔTm at 10 µM [9] of the same molecule?
**A.** The ΔTm at 10 µM was 2 °C.

**Q.** Which results are given for COc1ccc(CCc2nc3cc(-c4c(C)noc4C)ccc3n2C[C@H](C)N2CCOCC2)cc1Cl [Compound 59]?
**A.** IC50 [22]: 570 nM; HLM stability: compound detected after 60 min [23]: no compound was detected; IC50 [24]: 540 nM; ΔTm at 10 µM [5]: 1 to 2 °C; IC50 [25]: 150 nM; CC50 at 24 h [26]: 80 µM; CC50 at 72 h [26]: 8.1 µM; IC50 ([27]; Homo sapiens, RKO): 1540 nM; IC50 [27]: 1500 nM; FRAP half-time of fluorescence recovery (t1/2), GFP-tagged 3× CBP BRD [19]: 0.60 s; IC50 [28]: 110 nM; ΔTm at 10 µM [29]: 1 to 2 °C; ΔTm at 10 µM [30]: 1 to 2 °C
